Measured values from US10988459B2 (priority 2015, dated 2021).

Biological target: human RIP1 kinase domain (2-375) (Homo sapiens (Human), UniProt Q13546)
Assay: biochemical
Format: biochemical
Settings: Table 3; apparent Ki (Morrison tight-binding fit); 50 nM RIP1 kinase domain, 50 uM ATP, 2 hours incubation; read-out: Ki
In short: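 50 nM purified kinase domain from baculovirus-infected insect cells, incubated 2 h with compound in 50 mM Hepes pH 7.5, 30 mM MgCl2, 1 mM DTT, 50 uM ATP, 0.002% Brij-35, 0.5% DMSO. ADP formation read by Transcreener FP at 633 nm excitation. Ki^app fitted with the Morrison tight-binding equation.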

Chain of human RIP1 kinase domain (2-375) (Q13546 2-375): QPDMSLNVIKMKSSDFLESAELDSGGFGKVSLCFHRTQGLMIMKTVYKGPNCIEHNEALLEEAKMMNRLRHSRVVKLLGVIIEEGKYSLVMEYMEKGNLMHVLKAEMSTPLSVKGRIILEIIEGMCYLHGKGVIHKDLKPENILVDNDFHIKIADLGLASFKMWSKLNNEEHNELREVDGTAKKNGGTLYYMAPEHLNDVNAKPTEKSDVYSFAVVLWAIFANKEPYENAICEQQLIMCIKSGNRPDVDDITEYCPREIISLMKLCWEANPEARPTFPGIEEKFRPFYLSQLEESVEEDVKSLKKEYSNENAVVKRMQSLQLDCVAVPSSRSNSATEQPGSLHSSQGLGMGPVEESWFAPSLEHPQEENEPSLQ

| SMILES | Ki |
| --- | --- |
| CN1C(=O)[C@@H](NC(=O)c2n[nH]c3ccc(Cl)cc23)COc2ccccc21 [Example 338, (S)-5-chloro-N-(5-methyl-4-oxo-2,3,4,5-tetrahydrobenzo[b][1,4]oxazepin-3-yl)-1H-indazole-3-carboxamide] | 21 nM |

Same assay, conditions: Table 5; apparent Ki (Morrison tight-binding fit); 50 nM RIP1 kinase domain, 50 uM ATP, 2 hours incubation; read-out: Ki

| Ki | SMILES |
| --- | --- |
| 5 nM | CC(C)[C@@H]1CCCc2nc(C(=O)N[C@H]3COc4cc(F)cc(F)c4NC3=O)nn21 (single isomer, unassigned) [Example 715] |
| 149 nM | CN1C(=O)[C@@H](NC(=O)c2nc3n(n2)[C@@H](c2ccccc2)CCC3)COc2ccccc21 (single isomer, unassigned) [Example 790] |
| 137 nM | CN1C(=O)[C@@H](NC(=O)c2ccn(Cc3ccccc3)n2)CCn2nccc21 [Example 740, 1-benzyl-N-[(6S)-4-methyl-5-oxo-7,8-dihydro-6H-pyrazolo[1,5-a][1,3]diazepin-6-yl]pyrazole-3-carboxamide] |
| 73 nM | CCOCCc1cc2n(n1)CC[C@H](NC(=O)c1ncn(Cc3ccccc3F)n1)C(=O)N2C [Example 763] |
| 27 nM | CCn1cc(-c2cc3n(n2)CCC(NC(=O)c2ncn(Cc4ccccc4)n2)C(=O)N3C)cn1 (single isomer, unassigned) [Example 698, 1-benzyl-N-[2-(1-ethylpyrazol-4-yl)-4-methyl-5-oxo-7,8-dihydro-6H-pyrazolo[1,5-a][1,3]diazepin-6-yl]-1,2,4-triazole-3-carboxamide] |

Same assay, conditions: human RIP1 kinase domain (2-375), 50 uM ATP, 2 hours incubation, Transcreener ADP assay; read-out: RIP1 Ki

| Ki | SMILES |
| --- | --- |
| 124 nM | CN1C(=O)C(NC(=O)c2nnc(Cc3ccccc3)[nH]2)CCn2c1nc1ccccc12 (stereo not drawn) [Example 109, 5-benzyl-N-(1-methyl-2-oxo-2,3,4,5-tetrahydro-1H-benzo[4,5]imidazo[1,2-a][1,3]diazepin-3-yl)-4H-1,2,4-triazole-3-carboxamide] |
| 237 nM | CN1C(=O)[C@@H](NC(=O)c2cc3c(cn2)cnn3CC(F)(F)F)COc2ccccc21 [Example 127, N-[(3S)-5-methyl-4-oxo-2,3-dihydro-1,5-benzoxazepin-3-yl]-1-(2,2,2 trifluoroethyl)pyrazolo[4,3-c]pyridine-6-carboxamide] |
| 26.6 nM | CN1C(=O)[C@@H](NC(=O)c2ncn(Cc3ccccc3)n2)CCn2ccnc21 [Example 151, (S)-1-benzyl-N-(9-methyl-8-oxo-6,7,8,9-tetrahydro-5H-imidazo[1,2-a][1,3]diazepin-7-yl)-1H-1,2,4-triazole-3-carboxamide] |
| 55.4 nM | Cc1cc(F)c2c(c1)OC[C@H](NC(=O)c1n[nH]c3c1C[C@H](C(F)(F)F)CC3)C(=O)N2 [Example 89, (R)—N—((S)-6-fluoro-8-methyl-4-oxo-2,3,4,5-tetrahydrobenzo[b][1,4]oxazepin-3-yl)-5-(trifluoromethyl)-4,5,6,7-tetrahydro-1H-indazole-3-carboxamide] |
| 97.2 nM | CN1C(=O)C(NC(=O)c2cn(Cc3ccccc3)nn2)CCn2nc(-c3ccccc3)cc21 (stereo not drawn) [Example 216, 1-benzyl-N-(4-methyl-5-oxo-2-phenyl-5,6,7,8-tetrahydro-4H-pyrazolo[1,5-a][1,3]diazepin-6-yl)-1H-1,2,3-triazole-4-carboxamide] |
| 5000 nM | CCOC(=O)[C@H]1[C@H]2CC[C@H](NC(=O)c3ncn(Cc4ccccc4)n3)C(=O)N(C)[C@H]21 (single isomer, unassigned) [Example 132] |

Same assay, conditions: human RIP1 kinase domain (2-375), Transcreener ADP assay, 50 uM ATP, 2 hours incubation; read-out: RIP1 Ki

| Ki | SMILES |
| --- | --- |
| 4900 nM | CC[C@]1(C)OCc2cc(C(=O)NC3CCn4nc(-c5ccccc5)cc4N(C)C3=O)ncc21 (stereo partly drawn) [Example 265, (3S)-3-ethyl-3-methyl-N-(4-methyl-5-oxo-2-phenyl-5,6,7,8-tetrahydro-4H-pyrazolo[1,5-a][1,3]diazepin-6-yl)-1,3-dihydrofuro[3,4-c]pyridine-6-carboxamide] |
| 136 nM | Cc1cc2n(n1)CCC(NC(=O)c1ncn(CC3CCCC3)n1)C(=O)N2C (stereo not drawn) [Example 251, 1-(cyclopentylmethyl)-N-(2,4-dimethyl-5-oxo-5,6,7,8-tetrahydro-4H-pyrazolo[1,5-a][1,3]diazepin-6-yl)-1H-1,2,4-triazole-3-carboxamide] |

Same assay, conditions: read-out: RIP1 Ki

| SMILES | Ki |
| --- | --- |
| C[C@H]1CCc2[nH]nc(C(=O)N[C@H]3COc4ccccc4N(C)C3=O)c2C1 [Example 55, (S)-5-methyl-N-((S)-5-methyl-4-oxo-2,3,4,5-tetrahydrobenzo[b][1,4]oxazepin-3-yl)-4,5,6,7-tetrahydro-1H-indazole-3-carboxamide] | 103 nM |

Same assay, conditions: tight-binding apparent inhibition constant; human RIP1 kinase domain (2-375) 50 nM, 50 uM ATP, 2 hours; read-out: Ki

| Ki | SMILES |
| --- | --- |
| 4.5 nM | Cc1cc(F)c2c(c1)OC[C@H](NC(=O)c1nc3n(n1)[C@@H](C(C)C)CC3)C(=O)N2 (single isomer, unassigned) [Example 354] |
| 3.46 nM | Cc1cc(F)c2c(c1)OC[C@H](NC(=O)c1nc3n(n1)[C@H](C(C)C)CCC3)C(=O)N2 (single isomer, unassigned) [Example 440] |
| 19 nM | CN1C(=O)[C@@H](NC(=O)c2ncn(Cc3cc(F)ccc3F)n2)CCn2ccnc21 [Example 506, 1-[(2,5-difluorophenyl)methyl]-N-[(7S)-9-methyl-8-oxo-6,7-dihydro-5H-imidazo[1,2-a][1,3]diazepin-7-yl]-1,2,4-triazole-3-carboxamide] |
| 79 nM | CN1C(=O)[C@@H](NC(=O)c2ncn(Cc3ccccc3C#N)n2)CCn2nc(C3CC3)cc21 [Example 593] |
| 4.9 nM | O=C(N[C@H]1COc2cc(F)cc(F)c2NC1=O)c1ncc2c(n1)C1(CCCC1)OC2 [Example 481, N-[(3S)-6,8-difluoro-4-oxo-3,5-dihydro-2H-1,5-benzoxazepin-3-yl]spiro[5H-furo[3,4-d]pyrimidine-7,1′-cyclopentane]-2-carboxamide] |
| 960 nM | Cc1cc2n(n1)CC[C@H](NC(=O)c1ncc3c(n1)C1(CCOC1)OC3)C(=O)N2C (stereo partly drawn) [Example 551, N-[(6S)-2,4-dimethyl-5-oxo-7,8-dihydro-6H-pyrazolo[1,5-a][1,3]diazepin-6-yl]spiro[5H-furo[3,4-d]pyrimidine-7,3′-tetrahydrofuran]-2-carboxamide] |
| 113 nM | CN1C(=O)[C@@H](NC(=O)c2ncc3c(n2)[C@@]2(CCCOC2)OC3)COc2ccccc21 (racemic) [Example 692, rac-(7R)-N-[rac-(3S)-5-methyl-4-oxo-2,3-dihydro-1,5-benzoxazepin-3-yl]spiro[5H-furo[3,4-d]pyrimidine-7,3′-tetrahydropyran]-2-carboxamide] |
| 54 nM | CN1C(=O)[C@@H](NC(=O)c2ncn(Cc3ncccc3Cl)n2)CCn2nc(C3CC3)cc21 [Example 658] |
| 4.2 nM | CN1C(=O)[C@@H](NC(=O)c2ncc3cnn(C4CCCC4)c3n2)COc2ccccc21 [Example 485, 1-cyclopentyl-N-[(3S)-5-methyl-4-oxo-2,3-dihydro-1,5-benzoxazepin-3-yl]pyrazolo[3,4-d]pyrimidine-6-carboxamide] |
| 8200 nM | CN1C(=O)[C@H](NC(=O)c2ncn(Cc3ccc(Cl)cc3)n2)CCn2nc(C3CC3)cc21 (single isomer, unassigned) [Example 671] |
| 9 nM | CN1C(=O)[C@@H](NC(=O)c2nc3n(n2)[C@@H](c2ccccc2F)CC3)CCn2nccc21 [Example 465, (R)-5-(2-fluorophenyl)-N—((S)-4-methyl-5-oxo-5,6,7,8-tetrahydro-4H-pyrazolo[1,5-a][1,3]diazepin-6-yl)-6,7-dihydro-5H-pyrrolo[1,2-b][1,2,4]triazole-2-carboxamide] |
| 4.8 nM | CN1C(=O)[C@@H](NC(=O)c2ncn(Cc3ccccc3Cl)n2)CCn2nc(C(F)(F)F)cc21 [Example 528] |
| 140 nM | Cc1cc2n(n1)CC[C@H](NC(=O)c1nc3n(n1)CCN3c1c(F)cccc1F)C(=O)N2C [Example 649, 4-(2,6-difluorophenyl)-N-[(6S)-2,4-dimethyl-5-oxo-7,8-dihydro-6H-pyrazolo[1,5-a][1,3]diazepin-6-yl]-5,6-dihydroimidazo[1,2-b][1,2,4]triazole-2-carboxamide] |
| 10.9 nM | CCC[C@]1(C)OCc2cnc(C(=O)N[C@H]3COc4ccccc4N(C)C3=O)nc21 (mixture of isomers) [Example 683, (7S)-7-methyl-7-propyl-N-[rac-(3S)-5-methyl-4-oxo-2,3-dihydro-1,5-benzoxazepin-3-yl]-5H-furo[3,4-d] pyrimidine-2-carboxamide] |
| 1100 nM | Cc1cc2n(n1)CC[C@H](NC(=O)c1ncc3c(n1)[C@@](C)(CC(F)(F)F)OC3)C(=O)N2C (racemic) [Example 686, rac-(7R)-7-methyl-N-[rac-(6S)-2,4-dimethyl-5-oxo-7,8-dihydro-6H-pyrazolo[1,5-a][1,3]diazepin-6-yl]-7-(2,2,2-trifluoroethyl)-5H-furo[3,4-d]pyrimidine-2-carboxamide] |
| 310 nM | Cc1cc2n(n1)CC[C@H](NC(=O)c1ncn(Cc3ncccc3C)n1)C(=O)N2C [Example 644, 1-[(3-methyl-2-pyridyl)methyl]-N-(6S)-2,4-dimethyl-5-oxo-7,8-dihydro-6H-pyrazolo[1,5-a][1,3]diazepin-6-yl-1,2,4-triazole-3-carboxamide] |
| 10.9 nM | CN1C(=O)[C@@H](NC(=O)c2ncn(Cc3cccc(F)c3F)n2)CCn2nccc21 (racemic) [Example 342, 1-[(2,3-difluorophenyl)methyl]-N-[rac-(6S)-4-methyl-5-oxo-7,8-dihydro-6H-pyrazolo[1,5-a][1,3]diazepin-6-yl]-1,2,4-triazole-3-carboxamide] |
| 22 nM | CN1C(=O)[C@@H](NC(=O)c2nc3n(n2)[C@@H](c2ccccc2F)CC3)CCn2nccc21 [Example 668, (5R)-5-(2-fluorophenyl)-N-[(6S)-4-methyl-5-oxo-7,8-dihydro-6H-pyrazolo[1,5-a][1,3]diazepin-6-yl]-6,7-dihydro-5H-pyrrolo[1,2-b][1,2,4]triazole-2-carboxamide] |
